# Data reported in patent publication US11366114B2, “Genetically encoded fluorescent sensors for detecting ligand bias and intracellular signaling through cAMP pathways” (MONTANA MOLECULAR LLC, priority 2013, dated 2022).
# Key:
# cAMP = experiment: Fluorescence response of cAMP sensors to isoproterenol in HEK 293 cells co-expressing the beta adrenergic receptor; assay type: cell-based, human; details: for Relative Change in Fluorescence: in response to isoproternol; for dF/F: relative fluorescence response to isoproternol
# Experimental: To test the functionality of these 28 prototype sensors, each construct was co-expressed with the beta adrenergic receptor, which couples to the Gs signaling pathway when activated by isoproteronol, in HEK 293 cells, and the fluorescence measured as described below. Briefly, 96-well glass-bottom plates were coated with Poly-D-Lysine (Fisher Scientific, Pittsburgh, Pa.) and HEK 293 were seeded and cultured in EMEM (ATCC, Manassas, Va.) supplemented with 10% fetal bovine serum and Penicillin-Streptomycin at 37 […] and 30 ng of beta adrenergic receptor per well, using Lipofectamine 2000 Transfection Reagent (Life Technologies, Grand Island, N.Y.) according to the manufacturer's protocol, and incubated for 24-48 hours at 37° C. in 5% CO2.
# Prior to screening transfected cells for fluorescence, he EMEM culture medium was removed and 1×DPBS added to each well. A Zeiss Axiovert S100TV inverted microscope equipped with computer controlled excitation/emission filter wheels, shutters, and a Qimaging Retiga Exi CCD camera (Surrey, BC Canada) was used to image cells at 25e A) supplemented with 10% fetal bovine serum and Penicillin-Streptomycin at 37hn filters were used to resolve the green fluorescence from the cAMP sensors. Cells were analyzed for increases or decreases in fluorescence intensity upon addition of isoproternol, DMSO, forskolin and IBMX. To analyze the image stacks, background fluorescence was defined as a region of the image that contained no cells. The average value of this region was subtracted frame by frame from the measurements of the mean pixel values of the fluorescent cells. Fluorescence intensity data was plotted and analyzed with IGOR (Wavemetrics, Oswego, Oreg.).
# For transient expression and screening in an automated fluorescence plate reader, HEK 293T cells were cultured in Corning Co-Star Polystyrene 96-well plates coated with Poly-D-Lysine. HEK293T cells were plated at 35,000 cells/well in 100 μl growth medium per well without antibiotics so that the cells would be 90-95% confluent at the time of transfection (approximately 24 hours later). For each transfection (i.e. one well in a 96-well plate), 160 ng of plasmid DNA (120 ng sensor+40 ng receptor) was diluted in […] and then the mixture was replaced with fresh medium. Prior to scanning a plate on the Biotek Synergy Mx, EMEM culture medium was replaced with 250 μl of 1×DPBS per well. Plates were read at 25° C., using monochromators set to 488/20 nm excitation and 530/20 nm emission to resolve the green fluorescence from the cAMP sensor.
# [1] = molecular target: T1, G-protein coupled calcitonin receptor (Homo sapiens, UniProt P30988); experiment: Multiplexing of cAMP sensor with DAG sensor, calcitonin response curves; assay type: cell-based
# T1 sequence (P30988 25-474): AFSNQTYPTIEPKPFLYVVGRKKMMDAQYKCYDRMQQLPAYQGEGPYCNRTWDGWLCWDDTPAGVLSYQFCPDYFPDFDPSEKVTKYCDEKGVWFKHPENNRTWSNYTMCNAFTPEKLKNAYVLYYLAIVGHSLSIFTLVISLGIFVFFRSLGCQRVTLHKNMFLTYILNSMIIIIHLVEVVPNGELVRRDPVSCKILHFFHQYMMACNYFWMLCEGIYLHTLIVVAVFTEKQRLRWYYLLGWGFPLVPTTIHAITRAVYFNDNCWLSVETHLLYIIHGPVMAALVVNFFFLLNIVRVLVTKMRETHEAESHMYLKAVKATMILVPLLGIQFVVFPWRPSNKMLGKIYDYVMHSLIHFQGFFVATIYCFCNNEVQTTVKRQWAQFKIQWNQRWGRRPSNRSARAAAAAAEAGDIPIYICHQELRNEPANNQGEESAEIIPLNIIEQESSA
# Excerpt: FIG. 6 Multiplexing of a cAMP biosensor based on a single fluorescent protein with a second biosensor of a different color. The G-protein coupled calcitonin receptor was stimulated with different amounts of calcitonin (shown on the X axis) to produce response curves for a red cAMP and a green DAG sensor. The Y axis on the right indicates cAMP response. The Y axis on the left indicates DAG response.
# The ability of cAMP sensor proteins of the present invention to be multiplexed with other fluorescence based sensors was tested. Briefly, cells were co-transfected with expression vector expressing a cAMP sensor protein of the present invention comprising a green fluorescent protein, and a DAG biosensor comprising a red fluorescent protein. The cells were cultured, treated with isoptroterenol and the resulting fluorescence measured as described in Example 1A. The results of this study are show in FIG. 6.
# [2] = HEK 293 cells, beta adrenergic receptor co-expressed
Substance,Relative Change in Fluorescence (cAMP) [%],dF/F (cAMP; [2]),dF/F (cAMP; only cell of the column printed with %) [%],G-protein pathways stimulated (cAMP sensor / DAG sensor) ([1]; higher concentrations),G-protein pathways stimulated (cAMP sensor / DAG sensor) ([1]; low concentrations)
"EPAC2gfpRAP1B: cpEGFP tethered between Epac2 and Rap1B; SEQID 27 in Table 1, SEQ ID NO: 28 in Table 3",26,,,,
"EcpG9: prototype cAMP sensor, cpEGFP in Epac2 at L457; SEQID 30 in Table 1, SEQ ID NO: 31 in Table 3",13,13,,,
"EcpG10: prototype cAMP sensor, cpEGFP in Epac2 at R458; SEQID 25 in Table 1, SEQ ID NO: 26 in Table 3",−30,−30,,,
"EcpG12: prototype cAMP sensor, cpEGFP in Epac2 at V460; SEQID 11 in Table 1, SEQ ID NO: 12 in Table 3",−36,−36,,,
"EcpG13: prototype cAMP sensor, cpEGFP in Epac2 at E461; SEQID 28 in Table 1, SEQ ID NO: 29 in Table 3",−22,−22,,,
"EcpG15: prototype cAMP sensor, cpEGFP in Epac2 at N463; SEQID 17 in Table 1, SEQ ID NO: 18 in Table 3",34,34,,,
"EcpG18: prototype cAMP sensor, cpEGFP in Epac2 at A486; SEQID 32 in Table 1, SEQ ID NO: 33 in Table 3",12,12,,,
"EcpG22: prototype cAMP sensor, cpEGFP in Epac2 at V341; SEQID 31 in Table 1, SEQ ID NO: 32 in Table 3",−14,,−14,,
"EcpG23: prototype cAMP sensor, cpEGFP in Epac2 at L518; SEQID 29 in Table 1, SEQ ID NO: 30 in Table 3",−16,−16,,,
"EcpG24: prototype cAMP sensor, cpEGFP in Epac2 at A520; SEQID 33 in Table 1, SEQ ID NO: 34 in Table 3",−11,−11,,,
calcitonin,,,,two different G-protein pathways have been activated,can stimulate just one G-protein pathway
